Values joined by “and” are separate entries in the source; they are usually repeats but may differ in a detail not shown here. Equal values may be shown once.
Assays:
[1] = system: Swine-like H1N1 Influenza A virus strain A/California/04/2009; type: cell-based
Lactobacillus rhamnosus = assay: Growth of Lactobacillus rhamnosus in MRS broth fortified with MSM; type: cell-based; details: for Growth (colony forming units): 0.04% MSM in MRS broth, 0-72 hours
Method: (§1) Each organism (Lactobacillus rhamnosus, Lactobacillus acidophilus, and Bifidobacterium bifidum) was grown in MRS bacterial growth medium (broth) and plated on MRS agar at different time intervals. Results are expressed in colony forming units per milliliter (cfu/mL). […] All bacterial organisms were incubated at 35° C. +/−2° C. for the duration of the study. […] All preparations and plating were conducted at room temperature. […] Test samples were plated in triplicate at each test date and the averages are reported.

[2] = system: Rhinovirus type 14 (ATCC #VR-284); type: cell-based
[3] = system: Acidophilus plus Bifidus milk microorganisms; assay: Growth in Acidophilus plus Bifidus milk fortified with MSM; type: cell-based; details: A/B milk
[4] = system: Lactobacillus acidophilus ATCC #4356; assay: Lactobacillus acidophilus growth and recovery in a simulated intestinal tract environment; type: cell-based
[5] = system: Lactobacillus acidophilus; assay: Lactobacillus acidophilus milk growth in simulated gastric acid supplemented with MSM; type: cell-based; details: for Log Growth of L. acidophilus in milk average / Log Growth of L. acidophilus in milk in duplicate: simulated gastric acid pH 1.2
Bifidobacterium bifidum = assay: Growth of Bifidobacterium bifidum in MRS broth fortified with MSM (anaerobic); type: cell-based
Method: as §1, with “reported. Bifidobacterium bifidum, a common microbe used in probiotics, was also tested. All Bifidobacterium samples were incubated under anaerobic conditions.” for “reported.”

Pseudomonas aeruginosa = assay: USP <51> AET in cosmetic cream / cosmetic compositions, 28 days; type: cell-based; details: for Microbial growth (count): 48 hrs-28 days; for Log Reduction from Initial Microorganism Inoculum: 14 Days, 28 Days
Excerpt: (§2) The cosmetic cream matrix into which the MSM was incorporated was preservative free. An additional cream, with a preservative, was also spiked with E. coli and evaluated.

Escherichia coli = assay: as above; type: cell-based; details: for Microbial growth (count): 48 hrs-28 days; for Log Reduction from Initial Microorganism Inoculum: 14 Days, 28 Days
Excerpt: as §2

Aspergillus niger = assay: as above; type: cell-based; details: 10% MSM in cosmetic cream without preservative, 48 hrs-28 days
Excerpt: as §2

Candida albicans = assay: as above; type: cell-based; details: for Microbial growth (count): 48 hrs-28 days; for Log Reduction from Initial Microorganism Inoculum: 14 Days, 28 Days
Excerpt: as §2

E. coli = E. coli log growth in MSM supplemented Müller-Hinton media with or without NaCl; type: cell-based, Escherichia coli
Method: Standard Müller-Hinton media was compared to Müller-Hinton media supplemented with NaCl to the same level as the saline-based media of Example 4. […] Aliquots of each culture were taken at 24 and 48 hours, as well as 7 days.

[6] = 10% MSM in Preservative Free Cosmetic Composition #1, 48 hours after inoculation
[7] = 10% MSM in Preservative Free Cosmetic Composition #1, 7 days after inoculation
[8] = 10% MSM in cosmetic cream without preservative
[9] = 10% MSM in preservative-free jojoba cosmetic cream
[10] = 10% MSM, Preservative Free Cosmetic Composition #1
[11] = 10% MSM, Preservative Free Cosmetic Composition #2

## CS(C)(=O)=O [MSM, Methylsulfonylmethane]
[1]
  Average Log Stimulation: 0.17 log10
  Average Percent Stimulation: 32.39%
  Average TCID50: 3.67 log10 and 4.42 log10 and 4.67 log10 and 5.00 log10 and 4.58 log10 and 4.17 log10
  Log Stimulation: 0.17 log10
  Percent Stimulation: 32.39%
  TCID50: 3.75 log10 and 3.50 log10 and 4.00 log10 and 4.50 log10 and 4.25 log10 and 4.75 log10 and 5.00 log10
  log10 reduction: 0.66 log10 and 0.41 log10
  reduction of virus population: more than 1.0 log10
Lactobacillus rhamnosus; 0 hours of incubation
  Growth (colony forming units): 1.7 × 10^6 cfu/mL
Lactobacillus rhamnosus; 12 hours of incubation
  Growth (colony forming units): 2.1 × 10^7 cfu/mL
Lactobacillus rhamnosus; 24 hours of incubation
  Growth (colony forming units): 1.5 × 10^9 cfu/mL
Lactobacillus rhamnosus; 36 hours of incubation
  Growth (colony forming units): 1.8 × 10^9 cfu/mL
Lactobacillus rhamnosus; 48 hours of incubation
  Growth (colony forming units): 2.1 × 10^9 cfu/mL
Lactobacillus rhamnosus; 60 hours of incubation
  Growth (colony forming units): 2.6 × 10^9 cfu/mL
Lactobacillus rhamnosus; 0.2% MSM, first 12 hours
  recovery higher than the 0% control: 41%
Lactobacillus rhamnosus; 1% MSM, first 12 hours
  recovery higher than the 0% control: 47%
Lactobacillus rhamnosus; all MSM samples, first 12 hours
  recovery more than the 0% control: at least 12%
[2]
  Average Log Stimulation: 0.053 log10 and 0.11 log10
  Average Percent Stimulation: 11.49% and 22.38%
  Average TCID50: 4.42 log10 and 5.00 log10 and 5.58 log10 and 5.42 log10 and 5.67 log10 and 5.25 log10
  Log Stimulation: 0.08 log10 and 0.00 log10 and 0.17 log10
  TCID50: 4.25 log10 and 4.50 log10 and 4.75 log10 and 5.00 log10 and 5.25 log10 and 5.50 log10 and 6.00 log10 and 5.75 log10
Streptococcus Pneumonia
  reduction of viability: approximately 5%
[3]; hour 0
  Log Growth of Lactobacillus acidophilus in Milk fortified with MSM: 6.41 log
[3]; hour 8
  Log Growth of Lactobacillus acidophilus in Milk fortified with MSM: 8.67 log
[3]; hour 24
  Log Growth of Lactobacillus acidophilus in Milk fortified with MSM: 9.16 log
[3]; hour 56
  Log Growth of Lactobacillus acidophilus in Milk fortified with MSM: 8.56 log
[3]; hour 96
  Log Growth of Lactobacillus acidophilus in Milk fortified with MSM: 8.61 log
[3]; hour 104
  Log Growth of Lactobacillus acidophilus in Milk fortified with MSM: 8.92 log
[4]; 5.0% MSM
  log increase in the next 8 hours after hour 48: 3.16 logs
  time to substantial growth rate increase after hour 24: 6 h
[4]; 5.0% MSM, hour 36
  log growth of Lactobacillus acidophilus: 8.65 logs
[4]; 5.0% MSM, 20 min Gastric
  Log Growth of Lactobacillus acidophilus: <1.00 log
[4]; 5.0% MSM, Hour 3, simulated intestinal fluid
  Log Growth of Lactobacillus acidophilus: 1.62 log
[4]; 5.0% MSM, Hour 8, simulated intestinal fluid
  Log Growth of Lactobacillus acidophilus: 2.33 log
[4]; 5.0% MSM, Hour 24, simulated intestinal fluid
  Log Growth of Lactobacillus acidophilus: 6.39 log
[4]; 5.0% MSM, Hour 30, simulated intestinal fluid
  Log Growth of Lactobacillus acidophilus: 6.63 log
[4]; 5.0% MSM, Hour 36, simulated intestinal fluid
  Log Growth of Lactobacillus acidophilus: 8.65 log
[4]; 5.0% MSM, Hour 48, simulated intestinal fluid
  Log Growth of Lactobacillus acidophilus: 10.17 log
[4]; 5.0% MSM, Hour 54, simulated intestinal fluid
  Log Growth of Lactobacillus acidophilus: 13.33 log
[4]; 5.0% MSM, Hour 60, simulated intestinal fluid
  Log Growth of Lactobacillus acidophilus: 12.76 log
[4]; 5.0% MSM, Hour 72, simulated intestinal fluid
  Log Growth of Lactobacillus acidophilus: 12.78 log
[4]; 5.0% MSM, Starting Inoculum (milk)
  Log Growth of Lactobacillus acidophilus: 7.02 log
[4]; […] MSM
  log increase in the next 8 hours after hour 48: 2.07 logs
[4]; […] MSM, 20 min Gastric
  Log Growth of Lactobacillus acidophilus: <1.00 log
[4]; […] MSM, Starting Inoculum (milk)
  Log Growth of Lactobacillus acidophilus: 6.86 log
[5]; 5.0% MSM, 24 hours
  increase in log growth from previous time point: 0.23 logs
[5]; 5.0% MSM, Hour 48
  decrease in log growth from previous time point: 0.33 logs
[5]; 5% MSM, hour 0
  Log Growth of L. acidophilus in milk average: 0.41 log
[5]; 5% MSM, hour 3
  Log Growth of L. acidophilus in milk average: 0.41 log
[5]; 5% MSM, hour 6
  Log Growth of L. acidophilus in milk in duplicate: 0.82 log and 1 log
  Log Growth of L. acidophilus in milk average: 0.91 log
[5]; 5% MSM, hour 9
  Log Growth of L. acidophilus in milk in duplicate: 0.52 log
  Log Growth of L. acidophilus in milk average: 0.52 log
[5]; 5% MSM, hour 12
  Log Growth of L. acidophilus in milk average: 1.10 log
[5]; 5% MSM, hour 15
  Log Growth of L. acidophilus in milk in duplicate: 1.43 log
  Log Growth of L. acidophilus in milk average: 1.43 log
[5]; 5% MSM, hour 24
  Log Growth of L. acidophilus in milk in duplicate: 1.67 log and 1.64 log
  Log Growth of L. acidophilus in milk average: 1.66 log
[5]; 5% MSM, hour 48
  Log Growth of L. acidophilus in milk in duplicate: 1.22 log and 1.43 log
  Log Growth of L. acidophilus in milk average: 1.33 log
[5]; 5.0% MSM, listed as order: hour 15, maximum vs control maximum
  log growth higher than control: 0.45 logs and 0.68 logs
[5]; […] MSM (so in the source), 24 hours
  increase in log growth from previous time point: 0.30 logs
[5]; […] MSM, 24 hours
  decrease in log growth from previous time point: 0.11 logs
[5]; […] MSM, Hour 48
  decrease in log growth from previous time point: 0.38 logs
[5]; […] MSM, hour 0
  Log Growth of L. acidophilus in milk in duplicate: 0 log
  Log Growth of L. acidophilus in milk average: 0 log
[5]; […] MSM, hour 9
  Log Growth of L. acidophilus in milk average: 0.41 log
[5]; […] and 5.0% MSM
  increase in logs from hour 15 to 24: ≥ 0.24 logs
Bifidobacterium bifidum; 0.04% MSM
  log increase of Bifidobacterium: One
Bifidobacterium bifidum; 0.04% and 0.2% MSM samples, 48 hours
  log higher than the 0% MSM control: 1 log
Bifidobacterium bifidum; 0.2% MSM
  log increase of Bifidobacterium: 2 log
Pseudomonas aeruginosa; [6]
  Microbial growth (count): 7.3 × 10^3
Pseudomonas aeruginosa; [7]
  Microbial growth (count): <10
Pseudomonas aeruginosa; [8]
  Microbial growth (count): <10
Pseudomonas aeruginosa; [9]
  Log Reduction from Initial Microorganism Inoculum: 5.3 log
Pseudomonas aeruginosa; [10]
  Log Reduction from Initial Microorganism Inoculum: 5.8 log
Pseudomonas aeruginosa; [11]
  Log Reduction from Initial Microorganism Inoculum: 5.8 log
Escherichia coli; [6]
  Microbial growth (count): 5.4 × 10^4
Escherichia coli; [7]
  Microbial growth (count): <10
Escherichia coli; [8]
  Microbial growth (count): <10
Escherichia coli; [9]
  Log Reduction from Initial Microorganism Inoculum: 5.7 log
Escherichia coli; [10]
  Log Reduction from Initial Microorganism Inoculum: 5.8 log
Escherichia coli; [11]
  Log Reduction from Initial Microorganism Inoculum: 5.8 log
Aspergillus niger; 48 hours after inoculation
  Microbial growth (count): 8 × 10^3
Aspergillus niger; 14 days after inoculation
  Microbial growth (count): 6 × 10^3
Aspergillus niger; 28 days after inoculation
  Microbial growth (count): 5 × 10^2
Candida albicans; 10% MSM in Preservative Free Cosmetic Composition #2, after 48 hours incubation
  Microbial growth (count): 9.0 × 10^2
Candida albicans; 10% MSM in Preservative Free Cosmetic Composition #2, after 7 days incubation
  Microbial growth (count): <10
Candida albicans; [8]
  Microbial growth (count): <10
Candida albicans; [9]
  Log Reduction from Initial Microorganism Inoculum: 4.3 log
Candida albicans; [10]
  Log Reduction from Initial Microorganism Inoculum: 5.3 log
Candida albicans; [11]
  Log Reduction from Initial Microorganism Inoculum: 5.3 log
E. coli; FMHS media, 12% MSM, 7 days
  log reduction in E. coli: 3 log
E. coli; MSM concentrations greater than 13%, 48 hours
  reduction of E. coli growth: 1-2 logs
E. coli; after 24 hours, FMH (flaked MSM, Müller-Hinton), rows 16-5% MSM
  Log growth of E. coli: 6.2 log
E. coli; all media, MSM concentrations greater than 13%, 24 hours
  log reduction from the initial inoculum: approximately 1 log
